Measured values reported in patent US4206215A, “Antimicrobial bis-[4-(substituted-amino)-1-pyridinium]alkanes” (Sterling Drug Inc., priority 1977, dated 1980).
Like-named read-outs stand apart in the source and are kept apart here.

What was measured:
S. Aureus Smith = assay: In vitro antibacterial activity, MIC (modified Autotiter method); format: cell-based, Staphylococcus aureus; conditions: 18-20 hours at 37° C.; for MIC: Staphylococcus aureus, 20 h, read-out: MIC S. Aureus Smith
Method in brief: (§1)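 Double-strength inoculated semisynthetic broth containing glucose was dispensed onto compound dilutions. These dilutions, twofold each, were prepared in sterile water by the Autotiter from a 1,000 mcg./ml. solution, covering final levels of 500 to 0.06 mcg./ml.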

T. menta. 9129 = assay: In vitro antifungal activity, MIC (modified Autotiter method); format: cell-based, Trichophyton mentagrophytes; conditions: 18-20 hours at 37° C.; for MIC: Trichophyton mentagrophytes, 20 h, read-out: MIC T. menta. 9129
Method in brief: as §1

E. Coli ATCC 8739 = assay: Effect of serum on bacteriostatic activity (serial tube dilution test); format: cell-based, Escherichia coli; conditions: for Fold Increase in MIC E. Coli ATCC 8739: 40% vs 0% horse serum; for MIC: Escherichia coli, ATCC8739
Protocol: (§2) Antibacterial effectiveness in the presence of serum was determined for representative examples by the standard serial tube dilution test wherein paired comparisons of minimum inhibitory concentrations (MIC) were determined in the absence and in the presence of heat inactivated (30 min. at 56° C.) horse serum (40%) in the test medium. The results are expressed as the fold increase in MIC (mcg./ml.) versus Staphyloccocus aureus and Escherichia coli caused by the presence of serum and are presented in Table B hereinbelow.

C. albicans 10231 = assay: In vitro antifungal activity, MIC (modified Autotiter method); format: cell-based, Candida albicans; conditions: 18-20 hours at 37° C.; for MIC: Candida albicans, 10231, 20 h, read-out: MIC C. albicans 10231
Method in brief: as §1

C. albicans Wisc. = assay: as above; format: cell-based, Candida albicans; conditions: 18-20 hours at 37° C.; for MIC: Candida albicans, 20 h, read-out: MIC C. albicans Wisc.
Method in brief: as §1

P. mirab. MGH-1 = assay: In vitro antibacterial activity, MIC (modified Autotiter method); format: cell-based, Proteus mirabilis; conditions: 18-20 hours at 37° C.; for MIC: Proteus mirabilis, 20 h, read-out: MIC P. mirab. MGH-1
Method in brief: as §1

A. niger 16404 = assay: In vitro antifungal activity, MIC (modified Autotiter method); format: cell-based, Aspergillus niger; conditions: 18-20 hours at 37° C.; for MIC: Aspergillus niger, 16404, 20 h, read-out: MIC A. niger 16404
Method in brief: as §1

S. Aureus ATCC 6538 = assay: Effect of serum on bacteriostatic activity (serial tube dilution test); format: cell-based, Staphyloccocus aureus; conditions: for Fold Increase in MIC S. Aureus ATCC 6538: 40% vs 0% horse serum; for MIC: Staphylococcus aureus, ATCC6538
Protocol: as §2

Ps. aerug. MGH-2 = assay: In vitro antibacterial activity, MIC (modified Autotiter method); format: cell-based, Pseudomonas aeruginosa; conditions: 18-20 hours at 37° C.; for MIC: Pseudomonas aeruginosa, 20 h, read-out: MIC Ps. aerug. MGH-2
Method in brief: as §1

E. coli 100/B22 = assay: as above; format: cell-based, Escherichia coli; conditions: 18-20 hours at 37° C.; for MIC: Escherichia coli, 100/B22, 20 h, read-out: MIC E. coli 100/B22
Method in brief: as §1

E. coli Vogel = assay: as above; format: cell-based, Escherichia coli; conditions: 18-20 hours at 37° C.; for MIC: Escherichia coli, 20 h, read-out: MIC E. coli Vogel
Method in brief: as §1

E. coli AB1932-1 = assay: as above; format: cell-based, Escherichia coli; conditions: 18-20 hours at 37° C.; for MIC: Escherichia coli, AB19321, 20 h, read-out: MIC E. coli AB1932-1
Method in brief: as §1

[1] = tested on: Herpes simplex type 2 virus; assay: Virucidal activity in vitro (plaque inhibition test); format: cell-based; conditions: 2 mg. of test compound on growth medium
Protocol: Virucidal activity of representative examples against Herpes simplex type 2 virus was determined in vitro employing a procedure similar to the plaque inhibition test for detection of specific inhibitors of DNA-containing viruses published by E. C. Herrmann, Jr., Proc. Soc. Exp. Biol. Med. 107, 142 (1961) wherein 2 mg. of the test compound was placed on the surface of the growth medium.

K. pneum. 39645 = assay: In vitro antibacterial activity, MIC (modified Autotiter method); format: cell-based, Klebsiella pneumoniae; conditions: 18-20 hours at 37° C.; for MIC: Klebsiella pneumoniae, 20 h, read-out: MIC K. pneum. 39645
Method in brief: as §1

S. pyogen. C203 = assay: as above; format: cell-based, Streptococcus pyogenes; conditions: 18-20 hours at 37° C.; for MIC: Streptococcus pyogenes, 20 h, read-out: MIC S. pyogen. C203
Method in brief: as §1

[2] = 40% heat inactivated horse serum, read-out: MIC E. Coli ATCC 8739 40% Serum
[3] = read-out: MIC E. Coli ATCC 8739 0% Serum
[4] = 40% heat inactivated horse serum, read-out: MIC S. Aureus ATCC 6538 40% Serum
[5] = read-out: MIC S. Aureus ATCC 6538 0% Serum

| SMILES | Fold Increase in MIC E. Coli ATCC 8739 (E. Coli ATCC 8739) [fold] | MIC (E. Coli ATCC 8739; [2]) [µg/mL] | MIC (E. Coli ATCC 8739; [3]) [µg/mL] | MIC A. niger 16404 (A. niger 16404) [µg/mL] | Fold Increase in MIC S. Aureus ATCC 6538 (S. Aureus ATCC 6538) [fold] | MIC (S. Aureus ATCC 6538; [4]) [µg/mL] | MIC (S. Aureus ATCC 6538; [5]) [µg/mL] | Virucidal activity against Herpes simplex type 2 virus [1] | MIC (S. Aureus Smith) [µg/mL] | MIC (T. menta. 9129) [µg/mL] | MIC (C. albicans 10231) [µg/mL] | MIC (C. albicans Wisc.) [µg/mL] | MIC (Ps. aerug. MGH-2) [µg/mL] | MIC (E. coli 100/B22) [µg/mL] | MIC (E. coli Vogel) [µg/mL] | MIC (E. coli AB1932-1) [µg/mL] | MIC (K. pneum. 39645) [µg/mL] | MIC (S. pyogen. C203) [µg/mL] | MIC (P. mirab. MGH-1) [µg/mL] | MIC (A. niger 16404) [µg/mL] | also measured |
| --- | --- | --- | --- | --- | --- | --- | --- | --- | --- | --- | --- | --- | --- | --- | --- | --- | --- | --- | --- | --- | --- |
| CCCCCCNc1cc[n+](CCCCCCCCCCCC[n+]2ccc(NCCCCCC)cc2)cc1 [Example 7, 1,12-bis-[4-(hexylamino)-1-pyridinium]dodecane dibromide] | 32 | 12.5 | 0.39 | 3.0 | 16 | 1.56 | 0.1 | active | – | – | – | – | – | – | – | – | – | – | – | – | MIC S. Aureus Smith (S. Aureus Smith): 0.15 µg/mL; MIC T. menta. 9129 (T. menta. 9129): 0.37 µg/mL; MIC C. albicans 10231 (C. albicans 10231): 0.74 µg/mL; MIC C. albicans Wisc. (C. albicans Wisc.): 0.74 µg/mL; MIC P. mirab. MGH-1 (P. mirab. MGH-1): 6.0 µg/mL; MIC Ps. aerug. MGH-2 (Ps. aerug. MGH-2): 23.8 µg/mL; MIC E. coli 100/B22 (E. coli 100/B22): 0.37 µg/mL; MIC E. coli Vogel (E. coli Vogel): 0.37 µg/mL; MIC E. coli AB1932-1 (E. coli AB1932-1): 0.37 µg/mL; MIC K. pneum. 39645 (K. pneum. 39645): 1.5 µg/mL; MIC S. pyogen. C203 (S. pyogen. C203): 1.0 µg/mL |
| CCCCCCCCNc1cc[n+](CCCCCC[n+]2ccc(NCCCCCCCC)cc2)cc1 [Example 13, 1,6-bis-[4-(octylamino)-1-pyridinium]hexane dibromide] | 32 | 31.2 | 1 | 3.9 | 128 | 31.2 | 0.25 | active | 0.5 | 0.5 | 1.95 | 1.95 | 31.3 | 1.95 | 1.95 | 1 | 3.9 | 0.5 | – | – | MIC P. mirab. MGH-1 (P. mirab. MGH-1): 31.3 µg/mL |
| CCCCCCCNc1cc[n+](CCCCCCCC[n+]2ccc(NCCCCCCC)cc2)cc1 [Example 22, 1,8-bis-[4-(heptylamino)-1-pyridinium]-octanedibromide] | 8 | 3.9 | 0.5 | – | 16 | 3.9 | 0.25 | active | 0.39 | 1.95 | 0.98 | 1.95 | – | 0.98 | 1.95 | 0.98 | 1.95 | – | 62.5 | 15.6 | MIC Ps. aerug. MGH-2 (Ps. aerug. MGH-2): 313 µg/mL; MIC S. pyogen. C203 (S. pyogen. C203): 0.49 µg/mL |
| CCCCCCNc1cc[n+](CCCCCCCCCC[n+]2ccc(NCCCCCC)cc2)cc1 [Example 33, 1,10-bis-[4-(hexylamino)-1-pyridinium]decane dibromide] | 16 | 3.9 | 0.25 | – | 16 | 1.95 | 0.125 | active | 0.195 | 1.95 | 1.95 | 3.9 | 31.3 | 1.95 | 1.95 | 0.98 | 3.9 | 0.49 | 31.3 | 3.9 | – |
| CCCCCCCNc1cc[n+](CCCCC[n+]2ccc(NCCCCCCC)cc2)cc1 [Example 60, 1,5-bis-[4-(heptylamino)-1-pyridinium]pentane dibromide] | – | – | – | – | – | – | – | active | 0.49 | 7.8 | 15.6 | 15.6 | 125 | 7.8 | 31.3 | 3.9 | 31.3 | 1.95 | > 125 | 15.6 | – |
| CCCCCCCNc1cc[n+](CCCCCC[n+]2ccc(NCCCCCCC)cc2)cc1 [Example 61, 1,6-bis-[4-(heptylamino)-1-pyridinium]hexane dibromide] | – | – | – | 25 | – | – | – | active | 0.2 | 3.13 | 6.25 | 6.25 | 125 | 1.6 | 3.1 | 1.6 | 6.3 | – | > 250 | – | MIC S. pyogen. C203 (S. pyogen. C203): 0.4 µg/mL |
| CCCCC(CC)CNc1cc[n+](CCCC[n+]2ccc(NCC(CC)CCCC)cc2)cc1 (stereo not shown) [Example 63, 1,4-bis-[4-(2-ethylhexylamino)-1-pyridinium]butane dibromide] | – | – | – | – | – | – | – | active | 0.98 | 15.6 | 31.3 | 31.3 | 125 | 31.3 | 62.5 | 7.8 | > 125 | 1.25 | > 125 | 31.3 | – |
| Clc1ccc(Nc2cc[n+](CCCCCCCCCC[n+]3ccc(Nc4ccc(Cl)cc4)cc3)cc2)cc1 [Example 79B, 1,10-bis-[4-(p-chlorophenylamino)-1-pyridinium]decane dimethanesulfonate] | 32 | 15.6 | 0.5 | – | 32 | 7.8 | 0.25 | inactive | 0.4 | 6.25 | 3.13 | 6.25 | 62.5 | 1.6 | 1.6 | 0.8 | 3.1 | 0.4 | > 125 | 25 | – |
| Clc1ccc(Nc2cc[n+](CCCCCCC[n+]3ccc(Nc4ccc(Cl)cc4)cc3)cc2)cc1 [Example 81, 1,7-bis-[4-(p-chlorophenylamino)-1-pyridinium]heptane dibromide] | – | – | – | – | – | – | – | active | 0.98 | 7.8 | 31.3 | 31.3 | > 125 | 3.9 | 3.9 | 125 | > 125 | 0.49 | > 125 | 31.3 | – |
| Clc1ccc(Nc2cc[n+](CCCCCCCCC[n+]3ccc(Nc4ccc(Cl)cc4)cc3)cc2)cc1 [Example 82, 1,9-bis-[4-(p-chlorophenylamino)-1-pyridinium]nonane dibromide] | – | – | – | – | – | – | – | active | 0.625 | 3.9 | 3.9 | 3.9 | 125 | 1.95 | 0.98 | 0.98 | 7.8 | 0.24 | > 125 | 15.6 | – |
